From patent publication EP4566596A1, “ANTI-HBV AGENT” (RIKEN, priority 2022, dated 2024)
“And” between values parts separate entries of the source, which are not always exact repeats. Equal entries are not always repeated. Where two headings read alike, the source gives them in different places.

Experiments:
[1] = tested on: HBV DNA from Hep2.2.15.7; assay: Anti-HBV activity using hepatitis B virus-producing cultured cells (HBV DNA in culture medium, qPCR); type: cell-based; conditions: 144 h, Hep2.2.15.7 cells, HBV DNA in culture medium after 6 days
Method: Hep2.2.15.7 cells were spread in a 96-well plate (manufactured by TPP) at a density of 1 × 10^5 cells/well and cultured at 37°C and 5% CO2 using a culture medium containing DMEM/F12-GlutaMAX (manufactured by Thermo Fisher Scientific Inc.), 10% fetal bovine serum, 100 U/ml penicillin, 100 µg/ml streptomycin (manufactured by Thermo Fisher Scientific Inc.), and 5 µg/ml insulin (manufactured by Wako Pure Chemical). A test compound was added to the culture, and cells in three wells per condition were cultured. After 3 days, replacement with a medium containing the test compound was performed. After 6 days, cell viability was determined by quantitatively measuring intracellular mitochondrial activity. This was performed by measuring absorbance at 490 nm using Cell Proliferation Kit II (XTT) (manufactured by Roche) and a plate reader, EnSight (manufactured by PerkinElmer). At the same time, HBV-derived DNA was extracted and purified from the cell culture medium using Agencourt Genfind v2 (manufactured by Beckman-Coulter). […].

[2] = tested on: pgRNA in PXB cells; assay: Anti-HBV activity using hepatitis B virus-infected primary cultured human hepatocytes (pgRNA, qPCR); type: cell-based; conditions: 7 days treatment; for effect of suppressing pgRNA: FIG. 3; for IC50: Hepatitis B virus, Hepatocyte, compound added after 28 days
[3] = Mouse blood drug concentrations after oral administration (LC-MS/MS); type: in vivo, mice (ICR strain); conditions: ICR mice, plasma; for half-life: mouse, read-out: Elimination half-life
Method: A compound was dissolved in a mixture of ethanol and polysorbate 80 (1:1) to make 10 mg/mL, and the resulting mixture was diluted with saline to 1 mg/mL and orally administered to mice (ICR strain, males, 6-10 weeks old) using a sonde. Blood was collected from the tail vein at 0.25, 0.5, 1, 2, 4, and 7 hours after administration, and plasma was obtained. An internal standard (ritonavir) was added to 10 µL of plasma, and a deproteinized sample was used for measurement. The measurement was performed according to a liquid chromatography-tandem mass spectrometry method using a Shimadzu LCMS-8050 system. The analytical conditions were as follows. A COSMOSIL 3C18-MS-II (2.0 ID × 50 mm; manufactured by Nacalai Tesque, Inc.) column was used. The column temperature was 40°C, and the autosampler temperature was 4°C. The mobile phase was a combination of Phase A: water/acetonitrile = 9/1 (v/v) and Phase B: acetonitrile, and the flow rate was 0.6 mL/min. 2 µL of the sample was injected. The gradient elution conditions were 0 to 0.9 min, 5% B; 0.9 to 2.1 min, 5 to 95% B; 2.1 to 5.5 min, 95% B; 5.5 to 5.51 min, 95 to 5% B; and 5.51 to 6.0 min, 5% B. The cleaning solution used was an isopropanol/methanol/acetonitrile/water = 1/1/1/1 (v/v/v/v, %) solution containing 0.1% formic acid. The ionization method was ESI, and the collected data was processed using LabSolutions software (Ver. 5.97 SP1, Shimadzu Corporation).

[4] = type: in vitro ADME, human
Method: (§1) Then, 50 µL of a NADPH regeneration system (85 mM D-glucose-6-phosphate, 10 mM β-nicotinamide adenine dinucleotide phosphate, oxidized form, and 10 U/mL glucose-6-phosphate dehydrogenase, all manufactured by Oriental Yeast Co., Ltd.) was added and mixed, and incubation was started. The incubation starting point was set to 0 minutes of reaction. At 0, 30, and 60 minutes of reaction, a 50-µL fraction of the reaction solution was collected into 200 µL of an ice-cooled 0.5 µM propranolol/acetonitrile solution, and the reaction was stopped. The obtained preparative solution was transferred to a protein removal plate (manufactured by Phenomenex), and after suction filtration through a manifold for 96-well plates, the filtrate was collected into a 96-well plate for collection. 100 µL of the collected filtrate was transferred to a 96-well plate and dried in a nitrogen-blowing high-speed parallel concentrator (Turbo Vap 96, manufactured by Biotage). After dissolving the dried sample with the initial mobile phase, the target compound was quantified by liquid chromatography-tandem mass spectrometry (LC-MS/MS). […] As technical replicates, the residual rate was calculated in two independent series for each compound to be evaluated for each animal species.
(§2) The configuration of LC-MS/MS is as follows: high-performance liquid chromatography: Nexera X2 UPLC system (manufactured by Shimadzu), column: ACQUITY UPLC BEH C18 Column, 130A, 1.7 µm, 2.1 ×× 50 mm (manufactured by Waters), guard column: ACQUITY UPLC BEH C18 VanGuard Column, 130A, 1.7 µm, 2.1 ×× 50 mm (manufactured by Waters), mobile phase A: 0.1% aqueous formic acid solution/acetonitrile (9:1, v/v), mobile phase B: 0.1% aqueous formic acid solution/acetonitrile (1:9, v/v), gradient conditions: 0 to 1 min; 30% B, 1 to 1.5 min; 30 to 100% B, 1.5 to 3.5 min; 100% B, and 3.5 to 5 min; 30% B, and mass spectrometer: QTRAP 4500 (manufactured by AB Sciex) were used, a measurement target compound was ionized using an ESI method, and target ions were measured by multiple reaction monitoring. […]

[5] = type: in vitro ADME, rat
Method: as §1, §2

[6] = type: in vitro ADME, mouse
Method: as §1, §2

[7] = tested on: cccDNA; assay: Effect of suppressing cccDNA in HBV-infected PXB cells (qPCR); type: cell-based, HBV genotype C; conditions: 7 days treatment, FIG. 3
Method: Fresh human hepatocytes derived from PXB mice (PXB cells; manufactured by PhoenixBio Co., Ltd.) were spread in a collagen-coated 96-well plate (manufactured by FALCON) at a density of 0.7 × 10^5 cells/well, and cultured for 7 days using a dHCGM medium (manufactured in house) at 37°C and 5% CO2. HBV genotype C (manufactured by PhoenixBio Co., Ltd.) was added to the culture medium together with 4% PEG 8000 at a final density of 3.5 × 10^5 copies/well, and the medium was replaced after 1 day, and every third or fourth day thereafter. A test compound was added after 28 days, and cells in three wells per condition were cultured. Then, replacement with a medium containing the test compound was also performed after 3 or 4 days, and after 7 days, DNA was extracted and purified from the cells using Agencourt DNAdvance (manufactured by Beckman-Coulter). […]

[8] = tested on: HBV genotype C; assay: Anti-HBV activity in hepatitis B virus-infected human hepatocyte chimeric mice (serum HBV DNA); type: in vivo, Human hepatocyte-transplanted chimeric mice (PXB mice); conditions: 10 mg/kg orally twice daily for 21 days, FIG. 4
[9] = molecular target: HBc T33N (Hepatitis B virus genotype D subtype ayw, UniProt P03146, T33N); assay: HBV replication assay in HeLa cells, HBc T33N mutant; type: cell-based
[10] = tested on: HBc (1-149); assay: Capsid formation mechanism: gel filtration and electron microscopy of recombinant HBc (1-149); type: biochemical, HBV genotype C
Method: An expression plasmid in which the ubiquitin-like protein SUMO serving as a tag was fused to the sequence of the association domain (1-149) of HBc of genotype C was prepared and introduced into the Escherichia coli KRX strain, and a recombinant protein was expressed and purified. After the recombinant HBc (1-149) was cleaved with a SUMO protease to remove the tag, the dimer peak was separated by gel filtration and used for subsequent analyses. […]
This behavior is similar to that of the compound CBT-078. […] A fraction was collected from the elution peak at the position corresponding to the capsid, and a negatively stained image was captured using an electron microscope.

[11] = tested on: HBV; assay: Effect of suppressing HBsAg, HBeAg and pgRNA in primary cultured human hepatocytes infected with HBV; type: cell-based; conditions: concentrations of 0.01 to 100 mM, FIG. 2
Method: Primary cultured human hepatocytes infected with HBV were treated with the compound CBT-289 or Entecavir (ETV) at concentrations of […], and the HBsAg and HBeAg levels in the medium and the pgRNAlevel in the cells were measured.

HBc T33N, sequence (P03146 whole entry T33N, looked up): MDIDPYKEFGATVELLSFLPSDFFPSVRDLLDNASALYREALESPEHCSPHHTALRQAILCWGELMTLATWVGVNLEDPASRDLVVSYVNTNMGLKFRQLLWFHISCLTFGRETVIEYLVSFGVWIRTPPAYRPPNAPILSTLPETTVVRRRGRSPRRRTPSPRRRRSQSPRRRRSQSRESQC

## Cc1ccccc1NC(=O)c1cccc(C(=O)Nc2ccc(F)cc2)c1F [CBT-078, reference compound]
[1]
  IC50: 270 nM
[2]
  effect of suppressing pgRNA: did not have the effect of suppressing pgRNA
[3]
  Maximum blood concentration: 710 ng/mL
  Time to reach maximum blood concentration: 30 min
[3]; in vivo
  half-life: 0.533 h
[4]; Human liver microsomes, 0 min (baseline)
  residual rate: 100%
[4]; Human liver microsomes, 30 min
  residual rate: 77%
[4]; Human liver microsomes, 60 min
  residual rate: 60% and 58%
[5]; Rat liver microsomes, 0 min (baseline)
  residual rate: 100%
[5]; Rat liver microsomes, 30 min
  residual rate: 53% and 52%
[5]; Rat liver microsomes, 60 min
  residual rate: 35% and 34%
[6]; Mouse liver microsomes, 0 min (baseline)
  residual rate: 100%
[6]; Mouse liver microsomes, 30 min
  residual rate: 6%
[6]; Mouse liver microsomes, 60 min
  residual rate: 0%
[7]
  effect of suppressing cccDNA: did not have the effect of suppressing pgRNA or cccDNA

## Cc1cc(C#N)ccc1NC(=O)c1cccc(C(=O)Nc2ccc(F)cc2)c1F [CBT-209]
[1]
  IC50: 39 nM
[3]
  Maximum blood concentration: 250 ng/mL
  Time to reach maximum blood concentration: 120 min
[3]; male
  half-life: 13.8 h
[4]; human, 0 min, 1 µM, pH 7.4
  residual rate: 100%
[5]; rat, 0 min, 1 µM, pH 7.4
  residual rate: 100%
[6]; mouse, 0 min, 1 µM, pH 7.4
  residual rate: 100%
[8]
  HBV DNA level in the serum: preferentially reduced compared with GLS4 or the vehicle
[9]
  antiviral activity against viruses with the HBc T33N mutation: have antiviral activity even against viruses with the HBc T33N mutation
[10]; 11 µM HBc (1-149), 15 µM compound, overnight incubation at 4°C, FIG. 5
  association state of HBc (1-149) by gel filtration: the elution peak shifted to the position corresponding to the capsid
[10]; 7 days of incubation, gel filtration and electron microscope
  stability of the capsids formed: stable even after 7 days of incubation

## CCCCNC(=O)c1ccc(NC(=O)c2cccc(C(=O)Nc3ccc(F)cc3)c2F)c(C)c1 [CBT-289]
[1]
  IC50: 74 nM
[2]
  effect of suppressing pgRNA: suppressed cccDNA and pgRNA in a concentration-dependent manner
  IC50: 2480 nM
[11]
  HBeAg level in the medium: suppressed HBsAg, HBeAg, and pgRNAin a concentration-dependent manner
  HBsAg level in the medium: suppressed HBsAg, HBeAg, and pgRNAin a concentration-dependent manner
  pgRNA level in the cells: suppressed HBsAg, HBeAg, and pgRNAin a concentration-dependent manner
[7]
  effect of suppressing cccDNA: suppressed cccDNA and pgRNA in a concentration-dependent manner

## CCCNC(=O)c1ccc(NC(=O)c2cccc(C(=O)Nc3ccc(F)cc3)c2F)c(C)c1 [CBT-383]
[1]
  IC50: 910 nM
[2]
  IC50: 2330 nM

## CCNC(=O)c1ccc(NC(=O)c2cccc(C(=O)Nc3ccc(F)cc3)c2F)c(C)c1 [CBT-384]
[1]
  IC50: 75 nM
[2]
  IC50: 16500 nM

## Cc1cc(C(=O)NC(C)(C)C)ccc1NC(=O)c1cccc(C(=O)Nc2ccc(F)cc2)c1F [CBT-385]
[1]
  IC50: 180 nM
[2]
  IC50: > 100000 nM

## C=CCCNC(=O)c1ccc(NC(=O)c2cccc(C(=O)Nc3ccc(F)cc3)c2F)c(C)c1 [CBT-387]
[1]
  IC50: 41 nM
[2]
  IC50: 3410 nM

## CCCCCCNC(=O)c1ccc(NC(=O)c2cccc(C(=O)Nc3ccc(F)cc3)c2F)c(C)c1 [CBT-388]
[1]
  IC50: 180 nM
[2]
  IC50: 4590 nM

## CCCCCCCCCCNC(=O)c1ccc(NC(=O)c2cccc(C(=O)Nc3ccc(F)cc3)c2F)c(C)c1 [CBT-389]
[1]
  IC50: 470 nM
[2]
  IC50: 100000 nM

## Cc1cc(C(=O)NCCC(C)C)ccc1NC(=O)c1cccc(C(=O)Nc2ccc(F)cc2)c1F [CBT-390]
[1]
  IC50: 61 nM
[2]
  IC50: 730 nM

## CCC[C@@H](C)NC(=O)c1ccc(NC(=O)c2cccc(C(=O)Nc3ccc(F)cc3)c2F)c(C)c1 [CBT-391]
[1]
  IC50: 95 nM
[2]
  IC50: 2480 nM

## C=C1[C@H](CO)[C@@H](O)C[C@@H]1n1cnc2c(=O)[nH]c(N)nc21 [ETV, Entecavir, reference compound]
[11]
  HBeAg level in the medium: did not suppress them
  HBsAg level in the medium: did not suppress them
  pgRNA level in the cells: did not suppress them
